Assay: Blood loss after 3 mm tail transection (haemoglobin assay)
Conditions: mouse, in vivo, 10 mg/kg, 30 min
Text: “Blood loss” generally refers excessive bleeding or haemorrhage. Minor haemorrhage refers to clinically insignificant bleeding. Major haemorrhage refers to internal bleeding or when the individual loses sufficient amounts of blood to cause a haemodynamic instability. Blood loss may be measured clinically by measuring blood pressure, pulse rate, haemoglobin levels, urea levels in the blood, and/or by imaging. Indicators of major haemorrhage will be clear to a person skilled in the art. Blood loss may also be determined experimentally for example by measuring the total volume of blood collected from a mouse tail transection and may be quantified by measurement of haemoglobin (mg/dL) present in the total volume of blood lost during a specified observation period (for example 20 minutes). Total haemoglobin may be assessed via a commercially available Haemoglobin colorimetric assay kit (Cat #MAK115; Sigma-Aldrich).
Blood loss was assessed by carrying out a 3 mm tail transection (lop) in rodents, to assess blood loss following compound/drug administration. Tail lop was performed using a standard transection 3 mm from the tip of the tail (Schoenwaelder et al, 2011, Blood). The tail was immediately immersed in pre-warmed sterile saline (37° C.) and time to bleeding cessation and rebleeding events monitored for 30 minutes following transection. […]

blood loss (haemoglobin): over 2000 mg/dL
SMILES: CC1CNc2c(cccc2S(=O)(=O)N[C@@H](CCCNC(=N)N)C(=O)N2CC[C@@H](C)C[C@@H]2C(=O)O)C1 (stereo partly shown) [argatroban]

Reference: US20230416341A1, “IMPROVED THROMBIN INHIBITORS FOR TREATMENT OF THROMBOEMBOLIC CONDITIONS” (priority 2020, published 2023)
